Results as given in PMC3500254, “Potent Inhibition of Late Stages of Hepadnavirus Replication by a Modified Cell Penetrating Peptide” (PLoS ONE, 2012).
Like-named read-outs stand apart in the source and are kept apart here. Non-standard residues stand in square brackets, D forms with d. Residues, ends and D or L forms follow the SMILES beside them. *: point of attachment. Stearoyl = CCCCCCCCCCCCCCCCCC(=O)*; Palmitoyl = CCCCCCCCCCCCCCCC(=O)*; Myristoyl = CCCCCCCCCCCCCC(=O)*; Lauroyl = CCCCCCCCCCCC(=O)*; Decanoyl = CCCCCCCCCC(=O)*; Octanoyl = CCCCCCCC(=O)*

Experiments:
[1] = system: Duck Hepatitis B Virus (DHBV)
Procedure: (§1) Infected PDH and LMH-D2 cells were treated with 2 µM of several modified cationic peptides for 5 days. Cells supernatants were collected daily and were spotted onto positively charged nylon membrane and DHBV DNA was detected by hybridization with a DHBV DNA probe labeled with ^32P, and then was quantified by PhosphorImager scanning using ImageQuant software (Molecular Dynamics) to monitor DHBV release. Relative areas under curves determined by the means of duplicate, compared to untreated cells set at 100% are represented. […] Cell viability was determined by enzymatic activity MTT assay after daily incubation with different concentrations of Deca-(Arg)8 ranking from 1 µM to 4 µM during six days. The error bars display the standard deviation of duplicates in three independent experiments.
(§2) DHBV-infected PDHs (A), and stable transfected LMH-D2 cells (B) were treated with increasing amounts of Deca-(Arg)8 ranking from 0.25 µM to 2 µM in duplicates for 6 and 4 days, respectively. Cell culture supernatants were collected daily during treatment. The kinetics of viral release in cell culture supernatants, monitored by dot-blot hybridization and quantified by PhosphorImager scanning using ImageQuant software (Molecular Dynamics) is represented on the upper panel. Relative areas under curves determined by the means of duplicate, compared to untreated cells, are represented in the lower panel. The curves are representative of at least two independent experiments.
(§3) Primary duck hepatocytes (PDH) were isolated from Pekin duck embryos as previously described. DHBV infection was performed at the same time as plating by overnight incubation (16 h) of the hepatocytes with a virus-positive duck serum (30 virus genome equivalents (vge) per cell). The previously described avian hepatoma DHBV transfected LMH-D2 cell line, [38] was grown as previously described. The stably HBV-transfected cell line HepG2.2.15 was grown as previously described. Different amounts of CatLip were added daily to the culture medium from day 1 post-seeding and cells were lyzed at the end of treatment for analysis of intracellular viral DNA, RNA, and proteins. The growth medium was harvested and changed daily. The cellular toxicity was analyzed by daily examination of cells with a light microscope and by a cell toxicity test based on the (3-(4,5-dimethylthiazol-2-yl)-2,5 diphenyl-tetrazolium-bromide (MTT) assay.
(§4) Cells supernatants were harvested daily, spotted onto positively charged nylon membrane and extracellular DHBV DNA was detected in supernatant of cells by dot blot hybridization assay using a full-length ^32P-labelled DHBV probe as described previously. For DHBV intermediate replicative forms analysis, DNA was extracted from cells and 10 µg of the total cellular DNA were subjected to electrophoresis on 1% agarose gel, followed by Southern blot analysis and hybridization with ^32P-labeled genomic DHBV probe as previously described. Viral DNA was quantified by PhosphorImager scanning using ImageQuant software (Molecular Dynamics).

[2] = system: Duck Hepatitis B Virus (DHBV); assay: Inhibition of DHBV release in stably DHBV-transfected LMH-D2 cells (dot-blot of supernatant DHBV DNA); format: cell-based; details: concentration of CPP resulting in 50% inhibition of DHBV release, peptide added daily, PhosphorImager
Procedure: as §1, §2, §3, §4

PDH [3] = assay: MTT cell viability, PDH; format: cell-based, Pekin duck; details: daily exposure 1 µM to 4 µM for 6 days, duplicates in three independent experiments
Procedure: (§5) Figure 1 Inhibition of DHBV release in PDHs and LMH-D2 cells by modified cationic peptides and effect of Deca-(Arg)8 on cell viability. Infected PDH and LMH-D2 cells were treated with 2 µM of several modified cationic peptides for 5 days. […] Relative areas under curves determined by the means of duplicate, compared to untreated cells set at 100% are represented. The two representations show the effect of modified cationic peptides derived from (Arg)8 sequence with increasing number of arginine in the peptide (A) or with increasing number of carbon in the fatty acid chain (B). Dose-dependent effects of Deca-(Arg)8 transduction on cell viability (C). Cell viability was determined by enzymatic activity MTT assay after daily incubation with different concentrations of Deca-(Arg)8 ranking from 1 µM to 4 µM during six days. The error bars display the standard deviation of duplicates in three independent experiments. […]
(§6) Primary duck hepatocytes (PDH) were isolated from Pekin duck embryos as previously described. […] The cellular toxicity was analyzed by daily examination of cells with a light microscope and by a cell toxicity test based on the (3-(4,5-dimethylthiazol-2-yl)-2,5 diphenyl-tetrazolium-bromide (MTT) assay.

LMH-D2 cells = format: cell-based, avian; details: daily exposure 1 µM to 4 µM for 6 days, duplicates in three independent experiments
Procedure: as §5, §6

PDH [4] = details: 24 hours at 37°C, 5% CO2, fluorescence microscopy; for FITC-labelled cells (internalization): 0.5 µM; for percentage of FITC-labelled cells: 2 µM
Procedure: Next we analyzed cellular internalization of Deca-(Arg)8-FITC and Arg8-FITC in PDH cells using fluorescence microscopy.
(A); PDHs were plated and treated with (Arg)8 (left panel) or Deca-(Arg)8 (right panel) coupled to FITC at different concentration ranking from 0.5 µM to 2 µM and cells were incubated at 37°c, 5% of CO2 for 24 hours. Cells were observed by fluorescence microscopy (Magnificationx20).

| Compound | IC50 ([1]; 16 h) | IC50 [2] | other results |
| --- | --- | --- | --- |
| N=C(N)NCCC[C@@H](NC(=O)[C@H](N)Cc1c[nH]c2ccccc12)C(=O)N[C@H](CCCNC(=N)N)C(=O)N[C@H](CCCNC(=N)N)C(=O)N[C@H](CCCNC(=N)N)C(=O)N[C@H](CCCNC(=N)N)C(=O)N[C@H](CCCNC(=N)N)C(=O)N[C@H](CCCNC(=N)N)C(=O)N[C@H](CCCNC(=N)N)C(=O)NCC(N)=O [(Arg)8] (H-[dW][dR][dR][dR][dR][dR][dR][dR][dR]G-NH2) | 1.8 µM | 1.3 µM | inhibition of DHBV secretion ([1]; 5-days treatment, (Arg)8 0.5 to 2 µM, compared with Deca-(Arg)8, Fig. S2 (PDH and LMH-D2; cell system not given)): 60% |
| CCCCCCCCCC(=O)N[C@H](Cc1c[nH]c2ccccc12)C(=O)N[C@H](CCCNC(=N)N)C(=O)N[C@H](CCCNC(=N)N)C(=O)N[C@H](CCCNC(=N)N)C(=O)N[C@H](CCCNC(=N)N)C(=O)N[C@H](CCCNC(=N)N)C(=O)N[C@H](CCCNC(=N)N)C(=O)NCC(N)=O [Deca-(Arg)6] | – | 2.2 µM | IC50 ([1]; read-out: IC50 of DHBV release, PDH, DHBV-infected PDH, concentration of CPP resulting in 50% inhibition of DHBV release, peptide added daily, supernatant DHBV DNA by dot-blot, 32P probe, PhosphorImager): 1.4 µM |
| CCCCCCCCCC(=O)N[C@H](Cc1c[nH]c2ccccc12)C(=O)N[C@H](CCCNC(=N)N)C(=O)N[C@H](CCCNC(=N)N)C(=O)N[C@H](CCCNC(=N)N)C(=O)N[C@H](CCCNC(=N)N)C(=O)N[C@H](CCCNC(=N)N)C(=O)N[C@H](CCCNC(=N)N)C(=O)N[C@H](CCCNC(=N)N)C(=O)NCC(N)=O [Deca-(Arg)7] | 0.9 µM | 0.8 µM | – |
| CCCCCCCCCC(=O)N[C@H](Cc1c[nH]c2ccccc12)C(=O)N[C@H](CCCNC(=N)N)C(=O)N[C@H](CCCNC(=N)N)C(=O)N[C@H](CCCNC(=N)N)C(=O)N[C@H](CCCNC(=N)N)C(=O)N[C@H](CCCNC(=N)N)C(=O)N[C@H](CCCNC(=N)N)C(=O)N[C@H](CCCNC(=N)N)C(=O)N[C@H](CCCNC(=N)N)C(=O)NCC(N)=O [Deca-(Arg)8] (Decanoyl-[dW][dR][dR][dR][dR][dR][dR][dR][dR]G-NH2) | 0.6 µM | 0.3 µM | cell viability (MTT) versus untreated cells (PDH [3]): No statistically significant difference; cell viability (MTT) versus untreated cells (LMH-D2 cells): No statistically significant difference |
| CCCCCCCCCC(=O)N[C@H](Cc1c[nH]c2ccccc12)C(=O)N[C@H](CCCNC(=N)N)C(=O)N[C@H](CCCNC(=N)N)C(=O)N[C@H](CCCNC(=N)N)C(=O)N[C@H](CCCNC(=N)N)C(=O)N[C@H](CCCNC(=N)N)C(=O)N[C@H](CCCNC(=N)N)C(=O)N[C@H](CCCNC(=N)N)C(=O)N[C@H](CCCNC(=N)N)C(=O)N[C@H](CCCNC(=N)N)C(=O)NCC(N)=O [Deca-(Arg)9] (Decanoyl-[dW][dR][dR][dR][dR][dR][dR][dR][dR][dR]G-NH2) | 1.6 µM | – | – |
| CCCCCCCCCC(=O)N[C@H](Cc1c[nH]c2ccccc12)C(=O)N[C@H](CCCNC(=N)N)C(=O)N[C@H](CCCNC(=N)N)C(=O)N[C@H](CCCNC(=N)N)C(=O)N[C@H](CCCNC(=N)N)C(=O)N[C@H](CCCNC(=N)N)C(=O)N[C@H](CCCNC(=N)N)C(=O)N[C@H](CCCNC(=N)N)C(=O)N[C@H](CCCNC(=N)N)C(=O)N[C@H](CCCNC(=N)N)C(=O)N[C@H](CCCNC(=N)N)C(=O)NCC(N)=O [Deca-(Arg)10] | 1.4 µM | – | – |
| CCCCCCCCCC(=O)N[C@H](CCCNC(=N)N)C(=O)N[C@H](CCCNC(=N)N)C(=O)N[C@H](CCCNC(=N)N)C(=O)N[C@H](CCCNC(=N)N)C(=O)N[C@H](CCCCN)C(=O)N[C@H](CCCCN)C(=O)N[C@H](CCCCN)C(=O)N[C@H](CCCCN)C(=O)NCC(N)=O [Deca-(Arg-Lys)4–4] (Decanoyl-[dR][dR][dR][dR][dK][dK][dK][dK]G-NH2) | 2.3 µM | – | – |
| CCCCCCCCCCCC(=O)N[C@H](Cc1c[nH]c2ccccc12)C(=O)N[C@H](CCCNC(=N)N)C(=O)N[C@H](CCCNC(=N)N)C(=O)N[C@H](CCCNC(=N)N)C(=O)N[C@H](CCCNC(=N)N)C(=O)N[C@H](CCCNC(=N)N)C(=O)N[C@H](CCCNC(=N)N)C(=O)N[C@H](CCCNC(=N)N)C(=O)N[C@H](CCCNC(=N)N)C(=O)NCC(N)=O [Dodeca-(Arg)8] (Lauroyl-[dW][dR][dR][dR][dR][dR][dR][dR][dR]G-NH2) | 0.9 µM | 0.7 µM | – |
| CCCCCCCCCCCCCC(=O)N[C@H](Cc1c[nH]c2ccccc12)C(=O)N[C@H](CCCNC(=N)N)C(=O)N[C@H](CCCNC(=N)N)C(=O)N[C@H](CCCNC(=N)N)C(=O)N[C@H](CCCNC(=N)N)C(=O)N[C@H](CCCNC(=N)N)C(=O)N[C@H](CCCNC(=N)N)C(=O)N[C@H](CCCNC(=N)N)C(=O)N[C@H](CCCNC(=N)N)C(=O)NCC(N)=O [Myrist-(Arg)8] (Myristoyl-[dW][dR][dR][dR][dR][dR][dR][dR][dR]G-NH2) | 1.2 µM | 1.2 µM | – |
| CCCCCCCC(=O)N[C@H](Cc1c[nH]c2ccccc12)C(=O)N[C@H](CCCNC(=N)N)C(=O)N[C@H](CCCNC(=N)N)C(=O)N[C@H](CCCNC(=N)N)C(=O)N[C@H](CCCNC(=N)N)C(=O)N[C@H](CCCNC(=N)N)C(=O)N[C@H](CCCNC(=N)N)C(=O)N[C@H](CCCNC(=N)N)C(=O)N[C@H](CCCNC(=N)N)C(=O)NCC(N)=O [Octa-(Arg)8] (Octanoyl-[dW][dR][dR][dR][dR][dR][dR][dR][dR]G-NH2) | 1.7 µM | 2.7 µM | – |
| CCCCCCCCCCCCCCCC(=O)N[C@H](Cc1c[nH]c2ccccc12)C(=O)N[C@H](CCCNC(=N)N)C(=O)N[C@H](CCCNC(=N)N)C(=O)N[C@H](CCCNC(=N)N)C(=O)N[C@H](CCCNC(=N)N)C(=O)N[C@H](CCCNC(=N)N)C(=O)N[C@H](CCCNC(=N)N)C(=O)N[C@H](CCCNC(=N)N)C(=O)N[C@H](CCCNC(=N)N)C(=O)NCC(N)=O [Palmit-(Arg)8] (Palmitoyl-[dW][dR][dR][dR][dR][dR][dR][dR][dR]G-NH2) | 1.8 µM | 1.7 µM | – |
| CCCCCCCCCCCCCCCCCC(=O)N[C@H](Cc1c[nH]c2ccccc12)C(=O)N[C@H](CCCNC(=N)N)C(=O)N[C@H](CCCNC(=N)N)C(=O)N[C@H](CCCNC(=N)N)C(=O)N[C@H](CCCNC(=N)N)C(=O)N[C@H](CCCNC(=N)N)C(=O)N[C@H](CCCNC(=N)N)C(=O)N[C@H](CCCNC(=N)N)C(=O)N[C@H](CCCNC(=N)N)C(=O)NCC(N)=O [Stear-(Arg)8] (Stearoyl-[dW][dR][dR][dR][dR][dR][dR][dR][dR]G-NH2) | 1.9 µM | 1.8 µM | – |
| CCCCCCCCCC(=O)O [decanoic acid, reference compound] | – | – | effect on DHBV secretion ([1]; 5-days treatment, decanoic acid 0.5 to 10 µM, Fig. S2 (PDH and LMH-D2)): unable to significantly decrease DHBV secretion |
| Decanoic acid (C10:0)-Fluoresceinyl-lysine–RRRRRRRRG-NH2 [Deca-(Arg)8-FITC] | – | – | FITC-labelled cells (internalization) (PDH [4]): a higher number of FITC-labelled cells were observable; percentage of FITC-labelled cells (PDH [4]): more than 90% |
| Fluoresceinyl-lysine-RRRRRRRRG-NH2 [(Arg)8-FITC] | – | – | FITC-labelled cells (internalization) (PDH [4]): remained negative; percentage of FITC-labelled cells (PDH [4]): 70% |
